The target of one experiment is PHD1 (EGLN2) (Homo sapiens (Human), UniProt Q96KS0). The experiment can be described thus: HIF-PH assay (14CO2 capture), PHD1 enzyme inhibition. Particulars: Table 1; for IC50: individual measurement, read-out: IC50 (μM) PHD1; for PHD2/PHD1: ratio of the IC50 of the compound for each enzyme. In kind it is biochemical.
The next experiment has as its target PHD2 (EGLN1) (Homo sapiens (Human), UniProt Q9GZT9). Kind of experiment: HIF-PH assay (14CO2 capture), PHD2 enzyme inhibition. In kind it is biochemical. Particulars: Table 1; individual measurement; read-out: IC50 (μM) PHD2.

Sequence of PHD1 (EGLN2) (Q96KS0 whole entry): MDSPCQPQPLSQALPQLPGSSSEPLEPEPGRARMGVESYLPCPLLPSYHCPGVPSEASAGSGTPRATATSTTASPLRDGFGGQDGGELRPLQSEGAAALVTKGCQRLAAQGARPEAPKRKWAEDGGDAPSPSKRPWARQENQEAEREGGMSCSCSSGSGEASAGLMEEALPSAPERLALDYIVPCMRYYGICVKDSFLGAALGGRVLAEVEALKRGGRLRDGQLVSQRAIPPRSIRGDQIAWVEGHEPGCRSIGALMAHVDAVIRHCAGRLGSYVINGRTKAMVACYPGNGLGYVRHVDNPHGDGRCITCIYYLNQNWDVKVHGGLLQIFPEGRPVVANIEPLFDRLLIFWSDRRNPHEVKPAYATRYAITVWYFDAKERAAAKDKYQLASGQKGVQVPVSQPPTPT
Sequence of PHD2 (EGLN1) (Q9GZT9 whole entry): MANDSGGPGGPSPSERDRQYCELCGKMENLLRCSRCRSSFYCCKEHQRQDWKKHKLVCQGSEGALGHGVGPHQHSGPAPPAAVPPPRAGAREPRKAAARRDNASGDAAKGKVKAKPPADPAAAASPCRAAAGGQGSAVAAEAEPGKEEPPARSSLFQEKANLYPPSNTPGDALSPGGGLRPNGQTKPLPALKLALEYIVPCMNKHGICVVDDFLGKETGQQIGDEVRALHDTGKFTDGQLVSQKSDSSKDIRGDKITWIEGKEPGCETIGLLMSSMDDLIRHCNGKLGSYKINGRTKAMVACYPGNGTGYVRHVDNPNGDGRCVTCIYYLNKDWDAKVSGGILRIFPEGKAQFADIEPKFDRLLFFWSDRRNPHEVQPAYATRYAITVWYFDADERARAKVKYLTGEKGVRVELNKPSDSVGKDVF

Consider `O=C(NCC(C(=O)O)c1ccccc1)c1ncc2cc(Oc3ccccc3)ccc2c1O` (stereo not drawn) [Compound 169, 3-[(4-Hydroxy-7-phenoxy-isoquinoline-3-carbonyl)-amino]-2-phenyl-propionic acid], for which, on PHD1 (EGLN2), the concentration for half-maximal inhibition (IC50) (commonly the concentration that gives 50% inhibition) is 26.6 µM and the PHD2/PHD1 worked out at 6. Moreover, the IC50 at PHD2 (EGLN1) came out at 153 µM.

In the case of `N#Cc1nc(C(=O)N[C@@H](CC(=O)O)c2ccccc2F)c(O)c2ccc(Oc3ccccc3)cc12` [Compound 170, 3-(S)-[(1-Cyano-4-hydroxy-7-phenoxy-isoquinoline-3-carbonyl)-amino]-3-(2-fluoro-phenyl)-propionic acid], at PHD1 (EGLN2), the IC50 is 2.76 µM and the PHD2/PHD1 was determined as 12. In addition, at PHD2 (EGLN1), the 50% inhibitory concentration (IC50) was found to be 32.2 µM.

On to `Cc1ccccc1[C@H](CC(=O)O)NC(=O)c1nc(C#N)c2cc(Oc3ccccc3)ccc2c1O` [Compound 171, 3-(S)-[(1-Cyano-4-hydroxy-7-phenoxy-isoquinoline-3-carbonyl)-amino]-3-o-tolyl-propionic acid], for which the IC50 on PHD1 (EGLN2) was determined as 5.26 µM; at PHD2 (EGLN1), 45.7 µM. Further, on PHD1 (EGLN2), the PHD2/PHD1 was 9.

With `N#Cc1ccc([C@H](CC(=O)O)NC(=O)c2nc(C#N)c3cc(Oc4ccccc4)ccc3c2O)cc1` [Compound 172, 3-(S)-[(1-Cyano-4-hydroxy-7-phenoxy-isoquinoline-3-carbonyl)-amino]-3-(4-cyano-phenyl)-propionic acid], the concentration for half-maximal inhibition (IC50) stood at 2.83 µM on PHD1 (EGLN2) and 27.6 µM on PHD2 (EGLN1). Besides, on PHD1 (EGLN2), the PHD2/PHD1 is 10.

On to `N#Cc1nc(C(=O)NC(CC(=O)O)c2ccc(Cl)cc2)c(O)c2ccc(Oc3ccccc3)cc12` (stereo not drawn) [Compound 173, 3-(4-Chloro-phenyl)-3-[(1-cyano-4-hydroxy-7-phenoxy-isoquinoline-3-carbonyl)-amino]-propionic acid], for which, at PHD1 (EGLN2), the IC50 was found to be 3.97 µM and the PHD2/PHD1 worked out at 5. Moreover, the concentration for half-maximal inhibition (IC50) at PHD2 (EGLN1) came to 20.9 µM.

Turning to `N#Cc1nc(C(=O)NC(CC(=O)O)c2cccnc2)c(O)c2ccc(Oc3ccccc3)cc12` (stereo not drawn) [Compound 174, 3-[(1-Cyano-4-hydroxy-7-phenoxy-isoquinoline-3-carbonyl)-amino]-3-pyridin-3-yl-propionic acid], on PHD1 (EGLN2), the IC50 stood at 6.75 µM and the PHD2/PHD1 is given as 6. Also, the half-maximal inhibitory concentration (IC50) on PHD2 (EGLN1) is 39.4 µM.

As to `N#Cc1nc(C(=O)N[C@@H](CC(=O)O)c2cccnc2)c(O)c2ccc(Oc3ccccc3)cc12` [Compound 175, 3-(S)-[(1-Cyano-4-hydroxy-7-phenoxy-isoquinoline-3-carbonyl)-amino]-3-pyridin-3-yl-propionic acid], at PHD1 (EGLN2), the half-inhibitory concentration (IC50) was 4.51 µM and the PHD2/PHD1 turned out to be 6. The IC50 on PHD2 (EGLN1) turned out to be 25.1 µM.

For `N#Cc1nc(C(=O)N[C@H](CC(=O)O)c2cccnc2)c(O)c2ccc(Oc3ccccc3)cc12` [Compound 176, 3-(R)-[(1-Cyano-4-hydroxy-7-phenoxy-isoquinoline-3-carbonyl)-amino]-3-pyridin-3-yl-propionic acid], at PHD1 (EGLN2), the IC50 is 4.08 µM and the PHD2/PHD1 was 6. In addition, the 50% inhibitory concentration (IC50) on PHD2 (EGLN1) worked out at 24.6 µM.

In the case of `N#Cc1nc(C(=O)NCC(C(=O)O)C2CC2)c(O)c2ccc(Oc3ccccc3F)cc12` (stereo not drawn) [Compound 177, 3{-[1-Cyano-7-(2-fluoro-phenoxy)-4-hydroxy-isoquinoline-3-carbonyl]-amino}-2-cyclopropyl-propionic acid], on PHD1 (EGLN2), the IC50 came to 0.75 µM and the PHD2/PHD1 stood at 14. Moreover, on PHD2 (EGLN1), the IC50 amounted to 10.5 µM.

For the molecule `N#Cc1nc(C(=O)NCC(C(=O)O)C2CC2)c(O)c2ccc(Oc3ccc(F)cc3)cc12` (stereo not drawn) [Compound 179, 3{-[1-Cyano-7-(4-fluoro-phenoxy)-4-hydroxy-isoquinoline-3-carbonyl]-amino}-2-cyclopropyl-propionic acid], the concentration for half-maximal inhibition (IC50) was 0.95 µM on PHD1 (EGLN2) and 8.54 µM on PHD2 (EGLN1). The PHD2/PHD1 at PHD1 (EGLN2) is on record as 9.

For the origin of these results see patent US9409892B2, “4-hydroxy-isoquinoline compounds as HIF hydroxylase inhibitors” (FIBROGEN, INC., priority 2012, dated 2016).
